Here are results for 1 molecule from patent US9150505B2, “Prophylactic or therapeutic agent for diabetes or obesity” (AJINOMOTO CO., INC., priority 2010, dated 2015).

Molecules are shown by their SMILES.

For experiment [1], the system named is NCI-H716 cells. Kind of experiment: Promotion of CCK secretion in NCI-H716 cells. It is filed as cell-based, human. The protocol:
Human appendix-derived cell line NCI-H716 (ATCC No CCL-251) was cultured in a 10% FBS-containing DMEM/HamF-12 medium at 37° C. in the presence of 5% CO2. NCI-H716 cells were seeded in a poly-D-lysine-coated 24-well plate at 600,000 cells/well and cultured for two days. Prior to sample addition, wells were washed with Hepes buffer (20 mM Hepes, 146 mM NaCl, 5 mM KCl, 1.5 mM CaCl2, 1 mM MgSO4, 5.5 mM D-glucose, 0.02% BSA, pH 7.4). 300 μl of a sample solution dissolved in the same buffer was added and incubated at 37° C. for 30 minutes. Compound 1 in Example 6 (2 mM) and Compound 2 in Example 48 (1 mM) were used as the samples. In addition, a Hepes buffer was used as a control. After collecting the supernatant, the cells were precipitated by centrifugation (5,000×g, 1 min.) to collect the supernatant thereof, which was lyophilized in Speed Vac Concentrator (SAVANT) and dissolved by addition of 60 μl of water. CCK level in the solution was determined using Enzyme immuno assay kit (EK-069-04; PHENOIX PHARMACEUTICALS).

In experiment [2] the target is T1, human CaSR (Homo sapiens, UniProt P41180).
T1 construct: expressed in transfected cells; host or cells: 293E cells (EBNA1-expressing HEK293, ATCC No. CRL-10852), transient transfection of hCaSR/pcDNA3.1
T1 sequence (P41180 20-1078): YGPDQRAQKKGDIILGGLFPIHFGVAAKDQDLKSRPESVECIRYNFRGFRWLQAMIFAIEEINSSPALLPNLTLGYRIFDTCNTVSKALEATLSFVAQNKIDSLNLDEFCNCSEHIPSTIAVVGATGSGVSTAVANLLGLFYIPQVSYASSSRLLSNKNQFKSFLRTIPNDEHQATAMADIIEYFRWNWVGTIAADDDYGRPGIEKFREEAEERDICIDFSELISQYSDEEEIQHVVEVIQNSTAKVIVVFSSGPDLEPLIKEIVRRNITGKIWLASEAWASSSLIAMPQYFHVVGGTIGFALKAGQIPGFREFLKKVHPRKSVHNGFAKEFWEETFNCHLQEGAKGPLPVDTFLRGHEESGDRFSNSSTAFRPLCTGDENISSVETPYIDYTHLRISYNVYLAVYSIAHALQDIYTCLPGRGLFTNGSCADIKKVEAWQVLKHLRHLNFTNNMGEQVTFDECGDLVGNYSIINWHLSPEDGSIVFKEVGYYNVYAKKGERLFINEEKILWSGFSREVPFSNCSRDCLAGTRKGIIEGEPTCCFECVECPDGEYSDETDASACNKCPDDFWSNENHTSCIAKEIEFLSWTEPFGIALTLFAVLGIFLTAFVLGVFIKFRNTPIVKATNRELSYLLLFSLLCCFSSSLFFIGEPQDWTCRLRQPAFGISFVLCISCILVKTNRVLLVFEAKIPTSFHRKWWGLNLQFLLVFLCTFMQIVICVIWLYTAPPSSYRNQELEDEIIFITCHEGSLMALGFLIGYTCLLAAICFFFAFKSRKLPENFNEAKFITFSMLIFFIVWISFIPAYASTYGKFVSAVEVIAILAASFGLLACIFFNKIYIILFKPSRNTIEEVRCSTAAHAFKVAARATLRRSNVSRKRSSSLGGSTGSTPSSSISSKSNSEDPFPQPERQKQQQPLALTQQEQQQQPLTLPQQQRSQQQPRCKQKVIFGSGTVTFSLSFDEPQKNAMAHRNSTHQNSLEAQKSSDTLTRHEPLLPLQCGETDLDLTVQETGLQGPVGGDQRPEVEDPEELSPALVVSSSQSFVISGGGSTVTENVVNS
Kind of experiment: Assessment of CaSR agonistic activity (Ca2+ fluorescence, FLIPR, hCaSR-transfected 293E cells). The class given is cell-based. Conditions: human CaSR-expressing 293E cells, 1.5 mM CaCl2 assay buffer, 3-minute change in fluorescence intensity. As to the method: CaSR gene was prepared according to the method described in Example 1 of WO07/55393. The resulting recombinant plasmid was used to generate human CaSR-expressing plasmid hCaSR/pcDNA3.1.
293E cells (EBNA1-expressing IIEK293 cells, ATCC No. CRL-10852) were cultured in DMEM ([…] Glucose-containing Dulbecco's modified Eagle medium, Nacalai Tesque) containing 10% bovine fetal serum in the presence of 250 μg/ml of G418. The cells were seeded on a 10 cm-diameter petri dish at 1.8×10^6 cells/15 ml, and left to stand in a CO2 incubator (5% CO2, 37° C.) for 24 hours. Thereafter, human CaSR expression plasmid hCaSR/pcDNA3.1 was transfected with transfection reagent Mirus Trans IT 293 (Takara Bio). Following static culture in a CO2 incubator for 24 hours, the cells were harvested with 10% bovine fetal serum-containing DMEM and seeded on a poly-D-lysine coat 384 well plate (Falcon) at 15,000 cells/well. Following static culture in a CO2 incubator for 24 hours, the medium was removed and the resultant was added with 50 μl/well of Ca^2+ fluorescent indicator Calcium 4 Assay Kit (Molecular Devices) dissolved in an assay buffer (146 mM NaCl, 5 mM KCl, 1 mM MgSO4, 1 mg/ml Glucose, 20 mM HEPES (PH 7.2), 1.5 mM CaCl2), and left to stand at 37° C. for an hour and then at room temperature for 30 minutes to allow intake of the indicator. The above-mentioned 384-well plate was transferred to FLIPR (Molecular Devices) and added with 12.5 μl/well of a compound dissolved in a 0.1% BSA-containing assay buffer to measure 3-minute change in the fluorescence intensity.
The difference between maximum and minimum fluorescence intensities before and after compound addition (RFU (Max−Min)) was determined by FLIPR automatic calculation. An activity rate was calculated where RFU (Max−Min) upon addition of a compound at a maximum concentration was defined 100% and RFU (Max−Min) upon addition of DMSO as a substitute for the compound at the same concentration was defined 0%. The rate was subjected to curve fitting using spreadsheet software Xfit to determine EC50 value, i.e., a compound concentration upon 50% activity rate.

On to `N[C@@H](CNC(=O)Nc1cc(Cl)cc(S(=O)(=O)O)c1O)C(=O)O` [Example 6, (2S)-2-amino-3-{[(5-chloro-2-hydroxy-3-sulfophenyl)carbamoyl]amino}propanoic acid], for which the “Relative secretion volumes (CCK)” value in experiment [1] (2 mM, 30 minutes at 37° C., buffer assumed to be 1.0) is 4.89. In experiment [1] (result in words), the “effect of promoting CCK secretion” value is on record as “confirmed to have an effect of promoting CCK secretion”. The EC50 (usually the concentration needed to bring the measured effect to its halfway point) in experiment [2] was found to be 3 nM.
